Results on eight compounds are retold here after patent US10669271B2, “Heterocyclic compounds as immunomodulators” (Incyte Corporation, priority 2018, dated 2020).

One test concerns the target PD-1/PD-L1 (Homo sapiens (Human), UniProt Q9NZQ7). Put plainly: Homogeneous Time-Resolved Fluorescence (HTRF) PD-1/PD-L1 binding assay. As to conditions: recombinant human PD-1 and PD-L1, 25° C., pH 7.4. Here is the method: Example A. Homogeneous Time-Resolved Fluorescence (HTRF) PD-1/PD-L1 Binding Assay
The assays were conducted in a standard black 384-well polystyrene plate with a final volume of 20 μL. Inhibitors were first serially diluted in DMSO and then added to the plate wells before the addition of other reaction components. The final concentration of DMSO in the assay was 1%. The assays were carried out at 25° C. in the PBS buffer (pH 7.4) with 0.05% Tween-20 and 0.1% BSA. Recombinant human PD-L1 protein (19-238) with a His-tag at the C-terminus was purchased from AcroBiosystems (PD1-H5229). Recombinant human PD-1 protein (25-167) with Fc tag at the C-terminus was also purchased from AcroBiosystems (PD1-H5257). PD-L1 and PD-1 proteins were diluted in the assay buffer and 10 μL was added to the plate well. Plates were centrifuged and proteins were preincubated with inhibitors for 40 minutes. The incubation was followed by the addition of 10 μL of HTRF detection buffer supplemented with Europium cryptate-labeled anti-human IgG (PerkinElmer-AD0212) specific for Fc and anti-His antibody conjugated to SureLight®-Allophycocyanin (APC, PerkinElmer-AD0059H). After centrifugation, the plate was incubated at 25° C. for 60 min. before reading on a PHERAstar FS plate reader (665 nm/620 nm ratio). Final concentrations in the assay were—3 nM PD1,10 nM PD-L1, 1 nM europium anti-human IgG and 20 nM anti-His-Allophycocyanin. IC50 determination was performed by fitting the curve of percent control activity versus the log of the inhibitor concentration using the GraphPad Prism 5.0 software.
(In general: Time-resolved FRET reads energy transfer from a long-lived donor to a nearby acceptor.)

Test [1] concerns PD-L1 aAPC/CHO-K1 cells and Jurkat-PD-1-NFAT effector cells. Put plainly: Nuclear factor of activated T-cells (NFAT) assay. The class given is cell-based. As to conditions: Cricetulus griseus; PD-L1 aAPC/CHO-K1 cells with Jurkat-PD-1-NFAT effector cells, 24 hours. As for the experimental part: Example C. Nuclear Factor of Activated T-Cells (NFAT) Assay
PD-L1 aAPC/CHO-Klcells (Promega) were maintained in F-12 medium with addition of 10% FBS, 200 μg/ml Hygromycin B, 250 μg/ml Geneticin (G418). Jurkat-PD-1-NFAT effector cells (Promega) were cultured in RPMI 1640 medium supplemented with 10% FBS, 100 μg/ml Hygromycin B, 500 μg/ml G418. The culture media of PD-L1 aAPC/CHO-K1 cells were first replaced with assay medium (RPMI1640 medium with 1% FBS). The PD-L1 aAPC/CHO-K1 cells were then added in a white 384-well white clear bottom assay plate (CELLCOAT® Tissue Culture Plates, Greiner Bio-One) at 8000 per well in 10 μL assay medium. Test compounds were prepared by serial dilution in DMSO and 0.8 μL test compounds in DMSO were first transferred to the 384 REMP plate well (Thermofisher) by PlateMate Plus (Thermofisher) followed with addition of 50 μL plating medium. 5 μL compounds in the assay medium were transferred to the cells with 0.4% DMSO in the final assay at 2 μM. After removing the culture media, 10,000 Jurkat-PD-1-NFAT effector cells in 5 μL assay medium was dispensed into each well. The assay plate was incubated at 37° C., 5% CO2 for 24 hours. After the assay plate was equilibrated to room temp for 15 minutes, 20 µL/well of Bio-Glo™ reagent (Promega) were added. After 8 minutes incubation at room temperature, luminescence was read at with Pherastar microplate reader (BMG Labtech). The fold of induction (FOI) was calculated based on the ratio of luminescence normalized to the DMSO wells within each assay plate. The maximum percentage of induction was reported based on the ratio between the highest FOI of each compound and the maximum FOI of control compound within each assay plate. Wells with DMSO were served as the negative controls and wells containing control compound with the highest FOI were used as positive controls. EC50 determination was performed by fitting the curve of percent control activity versus the log of the compound concentration using the GraphPad Prism 6.0 software.

A further test addresses PD-L1 (Homo sapiens (Human), UniProt Q9NZQ7). The test can be described thus: PD-L1 whole blood internalization assay. The settings on record: 1 ng/ml human interferon γ, PD-L1 expression on CD14+ cells, read-out: Whole Blood (24 HR) IC50. Type of test: cell-based. Here is the method:
Example D. PD-L1 Whole Blood Internalization Assay
To determine PD-L1 internalization in human whole blood, normal human blood (Biological Specialty Corp, Colmar. Pa.) was incubated in the presence or absence of a concentration range of test compounds and 1 ng/ml human interferon γ (R&D Systems Inc. Minn. […] Blood was then stained with PD-L1 (MIH1, eBioscience; or BD Biosciences San Jose, Calif.), CD14 (Life Technologies, Carlsbad, Calif.) for 30 minutes in the dark at room temperature. Whole Blood/red cells were lysed/fixed (lysis buffer BD Biosciences) for 5 minutes at 37° C. in the dark and then centrifuged at 1600 RPM for 5 minutes. Cells were resuspended in Stain Buffer (BD Bioscience, San Jose, Calif.) and transferred into 96 well round bottom plates (Corning). Cells were gated on CD14+(BD Biosciences) and PD-L1 expression determined by mean fluorescence intensity (MFI) (BD LSRFortessa™ X-20). IC50 determination was performed by fitting the curve of compound percent inhibition versus the log of the compound concentration using the GraphPad Prism 7.0 software.

Structures are written as SMILES.

Sequence of PD-1/PD-L1 (Q9NZQ7 19-238): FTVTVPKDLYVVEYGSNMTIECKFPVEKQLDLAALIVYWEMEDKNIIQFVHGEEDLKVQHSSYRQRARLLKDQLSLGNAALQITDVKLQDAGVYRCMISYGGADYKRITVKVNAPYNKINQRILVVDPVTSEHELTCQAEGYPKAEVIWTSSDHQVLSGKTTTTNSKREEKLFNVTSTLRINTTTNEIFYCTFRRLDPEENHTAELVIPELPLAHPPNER
Sequence of PD-L1 (Q9NZQ7 19-290): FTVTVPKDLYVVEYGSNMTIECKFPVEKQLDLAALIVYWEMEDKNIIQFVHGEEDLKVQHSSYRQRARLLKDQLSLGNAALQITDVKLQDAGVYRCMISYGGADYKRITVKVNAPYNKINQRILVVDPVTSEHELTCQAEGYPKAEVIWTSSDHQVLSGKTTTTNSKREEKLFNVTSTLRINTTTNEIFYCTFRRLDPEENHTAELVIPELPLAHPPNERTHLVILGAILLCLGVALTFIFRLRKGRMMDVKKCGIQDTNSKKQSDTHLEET

With `Cc1c(Nc2nc(C(F)F)nc3cc(CN4CC[C@@H](O)C4)cnc23)cccc1-c1cccc(-c2nc3cc(CN4CCC(C)(C(=O)O)CC4)cc(C#N)c3o2)c1C` [Example 24, (R)-1-((7-cyano-2-(3′-(2-(difluoromethyl)-7-((3-hydroxypyrrolidin-1-yl)methyl)pyrido[3,2-d]pyrimidin-4-ylamino)-2,2′-dimethylbiphenyl-3-yl)benzo[d]oxazol-5-yl)methyl)-4-methylpiperidine-4-carboxylic Acid], the values for the IC50 on PD-1/PD-L1 and at PD-L1 were not above 10 nM and 10 to 100 nM, respectively. Besides, the EC50 in test [1] fell in the range of 10 to 100 nM.

As to `Cc1c(Nc2nc(C(F)F)nc3cc(CN4CC[C@@H](O)C4)cnc23)cccc1-c1cccc(-c2nc3cc(CN4CCC(C(=O)N(C)C)CC4)cc(C#N)c3o2)c1C` [Example 25, (R)-1-((7-cyano-2-(3′-(2-(difluoromethyl)-7-((3-hydroxypyrrolidin-1-yl)methyl)pyrido[3,2-d]pyrimidin-4-ylamino)-2,2′-dimethylbiphenyl-3-yl)benzo[d]oxazol-5-yl)methyl)-N,N-dimethylpiperidine-4-carboxamide], the values for the IC50 on PD-1/PD-L1 and at PD-L1 were not above 10 nM and 10 to 100 nM, respectively. Also, the concentration giving a half-maximal response (EC50) in test [1] lay within 10 to 100 nM.

For `Cc1c(Nc2nc(C(F)F)nc3cc(CN4CC[C@@H](O)C4)cnc23)cccc1-c1cccc(-c2nc3cc(CN4CCC(C(=O)NCCC(=O)O)CC4)cc(C#N)c3o2)c1C` [Example 27, (R)-3-(1-((7-cyano-2-(3′-(2-(difluoromethyl)-7-((3-hydroxypyrrolidin-1-yl)methyl)pyrido[3,2-d]pyrimidin-4-ylamino)-2,2′-dimethylbiphenyl-3-yl)benzo[d]oxazol-5-yl)methyl)piperidine-4-carboxamido)propanoic Acid], the IC50 at PD-1/PD-L1 is not above 10 nM; at PD-L1 it was 10 to 100 nM. The EC50 in test [1] is 10 to 100 nM.

With `Cc1c(Nc2nc(C(F)F)cc3cc(CN4CC[C@@H](O)C4)cnc23)cccc1-c1cccc(-c2nc3cc(CN4CC[C@@](C)(C(=O)O)C4)cc(C#N)c3o2)c1C` [Example 34, (R)-1-((7-cyano-2-(3′-(6-(difluoromethyl)-3-(((R)-3-hydroxypyrrolidin-1-yl)methyl)-1,7-naphthyridin-8-ylamino)-2,2′-dimethylbiphenyl-3-yl)benzo[d]oxazol-5-yl)methyl)-3-methylpyrrolidine-3-carboxylic Acid], the IC50 is not above 10 nM at PD-1/PD-L1 and 100 to 500 nM on PD-L1. This compound also displayed an EC50 in test [1] not above 10 nM.

For the compound `CNC(=O)C1CCN(Cc2cc(C#N)c3oc(-c4cccc(-c5cccc(Nc6nc(C(F)F)nc7cc(CN8CC[C@@H](O)C8)cnc67)c5C)c4C)nc3c2)CC1` [Example 26, (R)-1-((7-cyano-2-(3′-(2-(difluoromethyl)-7-((3-hydroxypyrrolidin-1-yl)methyl)pyrido[3,2-d]pyrimidin-4-ylamino)-2,2′-dimethylbiphenyl-3-yl)benzo[d]oxazol-5-yl)methyl)-N-methylpiperidine-4-carboxamide], the values for the half-maximal inhibitory concentration (IC50) at PD-1/PD-L1 and at PD-L1 were not above 10 nM and 10 to 100 nM, respectively. The compound also had an EC50 in test [1] not above 10 nM.

On to `Cc1c(Nc2nc(C(F)F)nc3cc(CN4CC[C@@H](O)C4)cnc23)cccc1-c1cccc(-c2nc3cc(CN4CC[C@](C)(C(=O)O)C4)cc(C#N)c3o2)c1C` [Example 23, (S)-1-((7-cyano-2-(3′-(2-(difluoromethyl)-7-(((R)-3-hydroxypyrrolidin-1-yl)methyl)pyrido[3,2-d]pyrimidin-4-ylamino)-2,2′-dimethylbiphenyl-3-yl)benzo[d]oxazol-5-yl)methyl)-3-methylpyrrolidine-3-carboxylic Acid], for which the IC50 at PD-1/PD-L1 is not above 10 nM; at PD-L1, 10 to 100 nM. This compound gave an EC50 in test [1] not above 10 nM.

Take `Cc1c(Nc2nc(C(F)F)nc3cc(CN4CC[C@@H](O)C4)cnc23)cccc1-c1cccc(-c2nc3cc(CN4CC[C@H](C(=O)O)C4)cc(C#N)c3o2)c1C` [Example 22, (S)-1-((7-cyano-2-(3′-(2-(difluoromethyl)-7-(((R)-3-hydroxypyrrolidin-1-yl)methyl)pyrido[3,2-d]pyrimidin-4-ylamino)-2,2′-dimethylbiphenyl-3-yl)benzo[d]oxazol-5-yl)methyl)pyrrolidine-3-carboxylic Acid]: the values for the IC50 on PD-1/PD-L1 and at PD-L1 were not above 10 nM and 10 to 100 nM, respectively. This compound came in with an EC50 in test [1] of 10 to 100 nM.

With `Cc1c(Nc2nc(CO)nc3cc(CN4CC[C@@H](O)C4)cnc23)cccc1-c1cccc(-c2nc3cc(CN4CCC(C(=O)O)CC4)cc(C#N)c3o2)c1C` [Example 32, (R)-1-((7-cyano-2-(3′-(2-(hydroxymethyl)-7-((3-hydroxypyrrolidin-1-yl)methyl)pyrido[3,2-d]pyrimidin-4-ylamino)-2,2′-dimethylbiphenyl-3-yl)benzo[d]oxazol-5-yl)methyl)piperidine-4-carboxylic Acid], the IC50 at PD-1/PD-L1 is not above 10 nM; at PD-L1, 10 to 100 nM. In test [1], this compound showed a half-maximal effective concentration (EC50) of 10 to 100 nM.

The term IC50 denotes the concentration needed to halve the response being measured. The EC50 is the concentration needed to bring the measured effect to its halfway point.
